Reference: patent US10004732B2 (Novartis AG, priority 2014, dated 2018)
Structures can show the parent of a compound that is named as a salt. Where two headings read alike, the source gives them in different places.

What was measured:
PI 3-kinase alpha [1] = biological target: T1, PI 3-kinase alpha (Homo sapiens, UniProt P42336); assay: Cellular assay H1, p-Akt (S473) in Rat-1 cells, Surefire format; assay type: cell-based; details: non-asterisked data: version H1 (Surefire format), Rat-1 cells; read-out: Assay H PI3Kα IC50
Source text: (§1) Cellular Assays for PI 3-Kinase Alpha (H1), Beta (I1) and Delta (J1): Surefire Format
(§2) AlphaScreen (Amplified Luminescent Proximity Homogeneous Assay, ALPHA, Perkin Elmer) is a non-radioactive bead-based proximity assay technology to study biomolecular interactions in a homogenous microtiter plate format. The brand name SureFire denotes AlphaScreen assays that are adapted to quantify the phosphorylation of endogenous cellular proteins in cell lysates, by using matched antibody pairs, which consist of an anti-phospho-kinase and an anti-kinase antibody. The assay allows characterization of kinase signaling in cells as well as measurement of kinase inhibitor effects.
(§3) Using Rat-1 cells stably expressing myr-HA-tagged versions of the human PI3Kdelta, PI3Kalpha, or PI3Kbeta p110 catalytic subunit isoforms, the assay was developed as a two-plate protocol in a 384-well format.
(§4) For compound testing, the cells were seeded at a density of 4000 (Rat-1_PI3Kdelta), 7500 (Rat-1_PI3Kalpha), or 6200 (Rat-1_PI3Kbeta) cells in 20 μl complete growth medium into cell culture treated 384-well plates and were grown at 37° C./5% CO2/90% humidity for 24 h. Shortly before compound transfer, the complete medium was removed, 30 μl assay buffer (DMEM high glucose, 1×MEM NEAA, 10 mM HEPES, 2 mM L-glutamine, 0.1% (w/v) BSA) was added and 10 μl of the compound predilutions were transferred to the cells.

PI 3-kinase delta [2] = biological target: T2, PI 3-kinase delta (Homo sapiens, UniProt O00329); assay: TR-FRET Adapta assay, assay F
Target sequence in this assay (O00329 whole entry): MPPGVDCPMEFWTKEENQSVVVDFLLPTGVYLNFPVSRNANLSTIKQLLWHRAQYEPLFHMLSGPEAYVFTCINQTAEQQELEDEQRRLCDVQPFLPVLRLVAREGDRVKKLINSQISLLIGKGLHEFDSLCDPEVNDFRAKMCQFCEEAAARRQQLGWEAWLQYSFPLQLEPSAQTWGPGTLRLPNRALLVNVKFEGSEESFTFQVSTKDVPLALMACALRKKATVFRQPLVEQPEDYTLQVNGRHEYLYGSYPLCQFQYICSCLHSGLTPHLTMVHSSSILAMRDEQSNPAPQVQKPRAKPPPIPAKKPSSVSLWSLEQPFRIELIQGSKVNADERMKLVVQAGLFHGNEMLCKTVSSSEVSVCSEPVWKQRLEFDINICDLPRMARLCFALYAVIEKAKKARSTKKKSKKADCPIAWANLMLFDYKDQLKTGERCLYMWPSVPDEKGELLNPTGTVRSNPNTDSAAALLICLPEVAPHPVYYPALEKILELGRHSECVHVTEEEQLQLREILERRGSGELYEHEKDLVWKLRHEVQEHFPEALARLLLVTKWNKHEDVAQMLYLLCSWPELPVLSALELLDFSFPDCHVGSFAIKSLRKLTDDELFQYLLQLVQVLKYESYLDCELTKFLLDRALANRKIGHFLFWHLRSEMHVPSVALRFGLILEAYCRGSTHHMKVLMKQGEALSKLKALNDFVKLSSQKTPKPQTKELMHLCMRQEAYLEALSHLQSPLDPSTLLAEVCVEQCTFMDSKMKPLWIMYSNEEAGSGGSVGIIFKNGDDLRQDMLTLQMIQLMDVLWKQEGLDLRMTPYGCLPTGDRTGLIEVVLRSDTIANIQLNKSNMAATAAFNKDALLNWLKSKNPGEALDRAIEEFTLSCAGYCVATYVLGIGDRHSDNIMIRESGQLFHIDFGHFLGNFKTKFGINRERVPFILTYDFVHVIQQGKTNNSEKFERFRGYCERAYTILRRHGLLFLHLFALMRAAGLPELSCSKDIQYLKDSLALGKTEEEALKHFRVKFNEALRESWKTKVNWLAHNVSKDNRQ
Target sequence in this assay (P27986 461-568 partner): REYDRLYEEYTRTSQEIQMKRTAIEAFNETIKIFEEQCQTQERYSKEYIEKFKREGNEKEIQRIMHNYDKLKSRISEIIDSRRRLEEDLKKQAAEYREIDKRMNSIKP
Procedure: TR-FRET Adapta Assay for PI 3-Kinase Gamma (E), PI 3-Kinase Delta (F)
The TR-FRET Adapta™ Universal Kinase Assay Kit was purchased from Invitrogen Corporation (Carlsbad/CA, USA) (Cat. No. PV5099).
PIK3CD substrate phosphatidylinositol (PI) was obtained from Invitrogen (vesicules consisting of 2 mM phosphatidylinositol (PI) in 50 mM HEPES pH7.5; Cat. No. PV5371). PIK3CG substrate phosphatidylinositol-4,5-bisphosphate (PIP(4,5)2 was obtained from Invitrogen (PIP2:PS large unilamellar vesicules consisting of 1 mM PIP2: 19 mM PS in 50 mM HEPES pH7.5, 3 mM MgCl2, 1 mM EGTA; Cat. No. PV5100).
Time-Resolved Fluorescence Resonance Energy Transfer (TR-FRET) is a technology based on energy transfer between two adjacent dyes, from an excited electron in one dye (the donor) to an electron of an adjacent dye (the acceptor) through resonance, then released as a photon. This energy transfer is detected by an increase in the fluorescence emission of the acceptor, and a decrease in the fluorescence emission of the donor. TR-FRET assays for protein kinases use a long-lifetime lanthanide Terbium or Europium chelates as the donor species which overcome interference from compound autofluorescence or light scatter from precipitated compounds, by introducing a delay after excitation by a flashlamp excitation source. Results are often expressed as a ratio of the intensities of the acceptor and donor fluorophores. The ratiometric nature of such a value corrects for differences in assay volumes between wells, as well as corrects for quenching effects due to colored compounds. The Adapta™ assay can be divided into two phases: a kinase reaction phase and an ADP detection phase. In the kinase reaction phase, all kinase reaction components are added to the well and the reaction is allowed to incubate for a set period of time specific for each kinase. […] In the presence of an inhibitor, the amount of ADP formed by the kinase reaction is reduced, and the resulting intact antibody-tracer interaction maintains a high TR-FRET signal.
50 nL of compound dilutions were dispensed onto white 384-well small volume polystyrene plate. Then 5 μL of either PI 3-kinase gamma or PI 3-kinase delta and lipid substrate (PI or PIP2:PS) followed by 5 μL of ATP (final assay volume 10 μL) are incubated at RT. The standard reaction buffer for the Adapta™ TR-FRET assay contained 10 mM Tris-HCl pH 7.5, 3 mM MgCl2, 50 mM NaCl, 1 mM DTT, 0.05% CHAPS 3-[(3-cholamidopropyl)dimethylammonio]-1-propanesulfonate).
Data are analyzed using Excel fit software or Graphpad Prism. IC50 values were derived by fitting a sigmoidal dose-response curve to a plot of assay readout over inhibitor concentration. All fits were performed with the program XLfit4 (ID Business Solutions, Guildford, UK). […] All fits were performed with the program XLfit4 (ID Business Solutions, Guildford, UK).

PI 3-kinase alpha [3] = biological target: T1, PI 3-kinase alpha; assay: Kinase Glo Luminescent Kinase Assay (Kglo), assay A; assay type: biochemical; details: read-out: Assay A PI3Kα IC50
PI 3-kinase gamma [4] = biological target: T3, PI 3-kinase gamma (Homo sapiens, UniProt P48736); assay: TR-FRET Adapta assay, assay E; assay type: biochemical; details: read-out: Assay E PI3Kγ IC50
T3 sequence (P48736 whole entry): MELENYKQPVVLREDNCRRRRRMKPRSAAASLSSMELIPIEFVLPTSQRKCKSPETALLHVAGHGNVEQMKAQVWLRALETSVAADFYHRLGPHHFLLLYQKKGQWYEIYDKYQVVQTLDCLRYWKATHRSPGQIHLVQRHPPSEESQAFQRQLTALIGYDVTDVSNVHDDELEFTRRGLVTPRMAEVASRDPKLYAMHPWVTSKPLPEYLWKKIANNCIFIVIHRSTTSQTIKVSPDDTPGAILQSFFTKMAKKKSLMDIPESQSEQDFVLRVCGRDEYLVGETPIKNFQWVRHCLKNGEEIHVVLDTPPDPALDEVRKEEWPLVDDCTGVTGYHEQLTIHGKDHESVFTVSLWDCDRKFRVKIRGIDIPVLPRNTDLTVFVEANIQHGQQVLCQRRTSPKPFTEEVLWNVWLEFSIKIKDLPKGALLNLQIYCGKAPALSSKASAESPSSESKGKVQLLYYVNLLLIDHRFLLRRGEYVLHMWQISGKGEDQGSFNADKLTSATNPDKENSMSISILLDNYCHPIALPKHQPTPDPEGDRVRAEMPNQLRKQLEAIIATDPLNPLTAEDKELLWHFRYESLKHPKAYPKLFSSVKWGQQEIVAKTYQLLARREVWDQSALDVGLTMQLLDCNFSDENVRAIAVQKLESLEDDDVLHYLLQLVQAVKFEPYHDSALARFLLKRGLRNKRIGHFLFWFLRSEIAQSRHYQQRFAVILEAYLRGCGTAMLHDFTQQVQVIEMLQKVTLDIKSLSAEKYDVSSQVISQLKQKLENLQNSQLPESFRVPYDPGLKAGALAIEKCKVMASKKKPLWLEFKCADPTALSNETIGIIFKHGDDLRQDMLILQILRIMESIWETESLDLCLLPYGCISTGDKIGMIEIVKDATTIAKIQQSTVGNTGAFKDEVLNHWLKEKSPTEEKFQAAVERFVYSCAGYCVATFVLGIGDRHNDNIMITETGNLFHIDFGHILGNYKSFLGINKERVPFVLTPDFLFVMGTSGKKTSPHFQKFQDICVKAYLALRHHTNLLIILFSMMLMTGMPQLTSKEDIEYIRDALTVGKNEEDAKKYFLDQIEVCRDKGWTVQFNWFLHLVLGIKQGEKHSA

PI 4-kinase beta = PI 4-kinase beta (Homo sapiens, UniProt Q9UBF8); assay: Kinase Glo Luminescent Kinase Assay (Kglo), assay D; assay type: biochemical; details: read-out: Assay D PI4Kβ IC50
Sequence of PI 4-kinase beta (Q9UBF8 whole entry): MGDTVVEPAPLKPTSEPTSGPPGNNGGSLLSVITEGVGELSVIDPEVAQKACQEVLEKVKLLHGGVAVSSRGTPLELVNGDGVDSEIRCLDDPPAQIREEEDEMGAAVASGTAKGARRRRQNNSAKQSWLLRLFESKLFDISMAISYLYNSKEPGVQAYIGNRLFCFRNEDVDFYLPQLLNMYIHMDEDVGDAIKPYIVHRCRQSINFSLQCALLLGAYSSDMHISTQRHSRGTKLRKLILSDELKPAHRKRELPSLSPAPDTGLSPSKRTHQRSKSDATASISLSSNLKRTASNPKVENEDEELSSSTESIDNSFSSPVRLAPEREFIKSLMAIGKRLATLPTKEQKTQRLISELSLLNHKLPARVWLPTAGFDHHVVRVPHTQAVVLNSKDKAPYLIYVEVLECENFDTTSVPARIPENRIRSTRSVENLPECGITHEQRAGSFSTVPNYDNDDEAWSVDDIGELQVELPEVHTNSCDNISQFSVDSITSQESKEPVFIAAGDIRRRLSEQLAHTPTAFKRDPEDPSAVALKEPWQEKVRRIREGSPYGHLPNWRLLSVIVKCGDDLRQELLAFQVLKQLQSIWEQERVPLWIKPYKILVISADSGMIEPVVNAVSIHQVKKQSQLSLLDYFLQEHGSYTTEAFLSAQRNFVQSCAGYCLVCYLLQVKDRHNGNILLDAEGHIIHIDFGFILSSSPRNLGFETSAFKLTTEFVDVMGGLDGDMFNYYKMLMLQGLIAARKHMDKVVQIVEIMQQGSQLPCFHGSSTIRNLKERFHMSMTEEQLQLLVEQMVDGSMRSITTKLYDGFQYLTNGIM

Vps34 = Vps34 (Homo sapiens, UniProt Q8NEB9); assay: Kinase Glo Luminescent Kinase Assay (Kglo), assay C; assay type: biochemical; details: read-out: Assay C VPS34 IC50
PI 3-kinase beta [5] = biological target: T4, PI 3-kinase beta (Homo sapiens, UniProt P42338); assay: Kinase Glo Luminescent Kinase Assay (Kglo), assay B; assay type: biochemical; details: read-out: Assay B PI3Kβ IC50
Target sequence in this assay (P42338 whole entry): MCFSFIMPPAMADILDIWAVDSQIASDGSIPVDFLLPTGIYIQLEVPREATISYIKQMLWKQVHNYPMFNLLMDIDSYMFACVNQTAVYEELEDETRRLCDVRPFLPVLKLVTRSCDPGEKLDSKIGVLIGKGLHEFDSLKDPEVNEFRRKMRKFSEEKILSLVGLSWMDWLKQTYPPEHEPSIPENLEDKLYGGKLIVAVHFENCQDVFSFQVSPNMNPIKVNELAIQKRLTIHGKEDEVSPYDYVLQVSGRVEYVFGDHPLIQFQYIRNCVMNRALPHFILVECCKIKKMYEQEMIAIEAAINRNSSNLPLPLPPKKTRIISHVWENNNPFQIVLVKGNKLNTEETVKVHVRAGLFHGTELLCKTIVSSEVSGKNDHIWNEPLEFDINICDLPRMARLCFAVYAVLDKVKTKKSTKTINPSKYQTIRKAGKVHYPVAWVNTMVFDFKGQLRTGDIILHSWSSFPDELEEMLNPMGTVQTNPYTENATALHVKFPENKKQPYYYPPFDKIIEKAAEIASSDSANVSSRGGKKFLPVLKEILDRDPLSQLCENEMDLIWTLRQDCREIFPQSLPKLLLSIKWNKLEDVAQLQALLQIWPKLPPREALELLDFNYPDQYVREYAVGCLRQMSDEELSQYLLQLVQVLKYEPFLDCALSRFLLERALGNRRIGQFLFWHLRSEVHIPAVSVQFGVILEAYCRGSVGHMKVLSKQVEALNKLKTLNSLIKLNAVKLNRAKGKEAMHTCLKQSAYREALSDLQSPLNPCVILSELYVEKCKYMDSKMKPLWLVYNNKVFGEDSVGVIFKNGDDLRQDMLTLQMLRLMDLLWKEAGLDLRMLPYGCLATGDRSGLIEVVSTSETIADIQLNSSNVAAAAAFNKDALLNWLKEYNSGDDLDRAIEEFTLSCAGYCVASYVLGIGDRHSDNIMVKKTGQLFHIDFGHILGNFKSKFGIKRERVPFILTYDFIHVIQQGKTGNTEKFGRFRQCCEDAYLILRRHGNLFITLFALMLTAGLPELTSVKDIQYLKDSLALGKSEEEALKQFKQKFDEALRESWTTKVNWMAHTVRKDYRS
Target sequence in this assay (P27986 461-568 partner): as the sequence (P27986 461-568 partner) above

[6] = Microsomal clearance assay (M); details: intrinsic clearance in rat liver microsomes
Procedure: The experiments were performed in 96-well glass plates at 37° C. on an automated Tecan EVO platform. Test compounds at a concentration of 10 mM in pure DMSO were diluted 1:1000 in water to 10 μM. […] Reactions were initiated by the addition of 150 μL of a cofactor solution containing 2 mM NADPH.

mTOR = mTOR (Homo sapiens, UniProt P42345); assay: Lanthascreen kinase binding assay, assay G; details: read-out: Assay G mTOR IC50
Procedure: Lanthascreen™ Kinase Binding Assay for mTOR (G)
Binding of an inhibitor to the kinase competes for binding with the tracer, resulting in a loss of FRET.
50 nL of compound dilutions were dispensed onto white 384-well small volume polystyrene plate.

[7] = tested on: IL-8-induced neutrophil shape change in human whole blood; assay: Whole blood neutrophil shape change assay (L); assay type: cell-based; details: IL-8, human whole blood, read-out: Assay L WBSC IC50
PI 3-kinase beta [8] = biological target: T4, PI 3-kinase beta; assay: Cellular assay I1, p-Akt (S473) in Rat-1 cells, Surefire format; assay type: cell-based; details: non-asterisked data: version I1 (Surefire format), Rat-1 cells; read-out: Assay I PI3Kβ IC50
Target sequence in this assay (P42338 whole entry): as the sequence (P42338 whole entry) above
Target sequence in this assay (Q63787 whole entry partner): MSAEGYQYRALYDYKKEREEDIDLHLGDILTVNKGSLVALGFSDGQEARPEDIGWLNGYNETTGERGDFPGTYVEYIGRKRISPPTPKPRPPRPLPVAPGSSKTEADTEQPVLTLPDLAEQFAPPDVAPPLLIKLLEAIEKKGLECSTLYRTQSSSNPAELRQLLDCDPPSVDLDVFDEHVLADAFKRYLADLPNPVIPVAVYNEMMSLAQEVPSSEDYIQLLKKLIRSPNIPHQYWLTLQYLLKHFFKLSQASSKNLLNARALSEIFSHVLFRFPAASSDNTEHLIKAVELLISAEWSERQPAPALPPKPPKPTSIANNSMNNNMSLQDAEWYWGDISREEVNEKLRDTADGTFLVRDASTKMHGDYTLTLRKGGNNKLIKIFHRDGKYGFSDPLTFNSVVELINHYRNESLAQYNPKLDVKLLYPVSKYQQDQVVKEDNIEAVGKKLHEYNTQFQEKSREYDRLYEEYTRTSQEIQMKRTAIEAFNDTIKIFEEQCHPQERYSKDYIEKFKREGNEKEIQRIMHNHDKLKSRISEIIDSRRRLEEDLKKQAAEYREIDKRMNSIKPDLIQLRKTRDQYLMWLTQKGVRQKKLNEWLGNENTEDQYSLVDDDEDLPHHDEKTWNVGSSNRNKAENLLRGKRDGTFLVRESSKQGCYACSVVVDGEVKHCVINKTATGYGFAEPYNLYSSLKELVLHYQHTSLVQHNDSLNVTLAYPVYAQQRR

PI 3-kinase delta [9] = biological target: T2, PI 3-kinase delta; assay: Cellular assay J1, p-Akt (S473) in Rat-1 cells, Surefire format; assay type: cell-based; details: non-asterisked data: version J1 (Surefire format), Rat-1 cells; read-out: Assay J PI3Kδ IC50
Target sequence in this assay (O00329 whole entry): as the sequence (O00329 whole entry) above
Target sequence in this assay (Q63787 whole entry partner): as the sequence (Q63787 whole entry partner) above
Source text: as §1, §2, §3, §4

PI 3-kinase gamma [10] = biological target: T3, PI 3-kinase gamma; assay: Cellular U937 AKT assay K1 (MSD); assay type: cell-based; details: U937 cells, K1 format; read-out: Assay K1 PI3Kγ IC50

| SMILES | IC50 (PI 3-kinase alpha [1]) | IC50 (PI 3-kinase delta [2]; read-out: Assay F PI3Kδ IC50) | IC50 (PI 3-kinase alpha [3]) | IC50 (PI 3-kinase gamma [4]) | IC50 (PI 4-kinase beta) | IC50 (Vps34) | IC50 (PI 3-kinase beta [5]) | Assay M RLM CI(int) [6] | IC50 (mTOR) | IC50 ([7]; Homo sapiens, Neutrophil) | IC50 (PI 3-kinase beta [8]) | IC50 (PI 3-kinase delta [9]) | IC50 (PI 3-kinase gamma [10]) | IC50 [7] | IC50 (PI 3-kinase delta [2]; Assay F PI3Kδ IC50 (μM)) |
| --- | --- | --- | --- | --- | --- | --- | --- | --- | --- | --- | --- | --- | --- | --- | --- |
| CC(C)(O)CCNS(=O)(=O)c1ccc(Cl)c(-c2cnc(N)c(-n3cncn3)n2)c1 [Example 38, 3-(5-Amino-6-(1H-1,2,4-triazol-1-yl)pyrazin-2-yl)-4-chloro-N-(3-hydroxy-3-methylbutyl)benzenesulfonamide] | 3020 nM | 0.14 µM | 920 nM | 25 nM | 4200 nM | > 9100 nM | 3500 nM | 89 µL/min/mg | 8400 nM | 3380 nM | 2110 nM | 2360 nM |  |  |  |
| Cc1ccc(S(=O)(=O)NC[C@H]2CCCO2)cc1-c1cnc(N)c(-n2cncn2)n1 [Example 127.14] |  | 0.9 µM | 920 nM | 69 nM | 8450 nM | > 10000 nM | 2600 nM |  | 9000 nM | 1790 nM |  |  | 645 nM |  |  |
| Cc1ccc(S(=O)(=O)N[C@H]2C[C@@H](O)C2)cc1-c1cnc(N)c(-n2cncn2)n1 [Example 71b, 3-(5-amino-6-(1H-1,2,4-triazol-1-yl)pyrazin-2-yl)-N-((1s,3s)-3-hydroxycyclobutyl)-4-methylbenzenesulfonamide] | 6910 nM | 1.3 µM | 760 nM | 21 nM | 4600 nM | > 10000 nM | 1900 nM | 26 µL/min/mg | > 10000 nM |  | > 10000 nM | 5860 nM |  | 1620 nM |  |
| Cc1ccc(S(=O)(=O)NCC2CCCOC2)cc1-c1cnc(N)c(-n2cncn2)n1 (stereo not drawn) [Example 127.19] |  | 0.62 µM | 260 nM | 61 nM | 3900 nM | > 10000 nM | 1300 nM |  | > 10000 nM | 1620 nM |  |  | 153 nM |  |  |
| Cc1ccc(S(=O)(=O)N[C@H]2C[C@H](O)C2)cc1-c1cnc(N)c(-n2cncn2)n1 [Example 71a, 3-(5-Amino-6-(1H-1,2,4-triazol-1-yl)pyrazin-2-yl)-N-((1r,3r)-3-hydroxycyclobutyl)-4-methylbenzenesulfonamide] | 3060 nM | 1 µM | 330 nM | 13 nM | 2800 nM | > 10000 nM | 1100 nM | 18 µL/min/mg | > 10000 nM |  | 8020 nM | 3650 nM |  | 763 nM |  |
| Cc1ccc(S(=O)(=O)NCCC2(O)CCCC2)cc1-c1cnc(N)c(-n2cncn2)n1 [Example 127.36] |  | 0.79 µM | 190 nM | 24 nM | 5300 nM | > 10000 nM | 1900 nM |  | 7600 nM | 3850 nM |  |  | 126 nM |  |  |
| COCCCNS(=O)(=O)c1ccc(C)c(-c2cnc(N)c(-c3ccnc(C)c3)n2)c1 [Example 129.11, 3-(5-amino-6-(2-methylpyridin-4-yl)pyrazin-2-yl)-N-(3-methoxypropyl)-4-methylbenzenesulfonamide] | 2730 nM | 0.79 µM | 640 nM | 173 nM | > 9100 nM | > 9100 nM | > 9100 nM | 105 µL/min/mg | > 9100 nM | 5680 nM | 8380 nM | 3330 nM |  |  |  |
| CC(C)(O)CNS(=O)(=O)c1cccc(-c2cnc(N)c(-n3cncn3)n2)c1 [Example 123, 3-(5-Amino-6-(1H-1,2,4-triazol-1-yl)pyrazin-2-yl)-N-(2-hydroxy-2-methylpropyl)benzenesulfonamide] | > 10000 nM | 4.7 µM | 2900 nM | 2100 nM | 2500 nM | > 10000 nM | 5500 nM | 62 µL/min/mg | 9000 nM | 85100 nM | > 10000 nM | 3630 nM |  |  |  |
| Cc1ccc(S(=O)(=O)N2CCCC(F)(F)C2)cc1-c1cnc(N)c(-n2cncn2)n1 [Example 127.1] | 1570 nM | 0.56 µM | 290 nM | 11 nM | 1500 nM | > 10000 nM | 1200 nM | 907 µL/min/mg | 1100 nM | 2470 nM | > 10000 nM | 1140 nM |  |  |  |
| Cc1ccc(S(=O)(=O)NCC2(O)COC2)cc1-c1cnc(N)c(-n2cncn2)n1 [Example 127.47] |  | 3.2 µM | 1100 nM | 60 nM | 6600 nM | > 10000 nM | 2200 nM |  | > 10000 nM | 2180 nM |  |  | 266 nM |  |  |
| Cc1ccc(S(=O)(=O)NC2CC3(CC(O)C3)C2)cc1-c1cnc(N)c(-n2cncn2)n1 (single isomer, unassigned) [Example 70a, (S)-3-(5-Amino-6-(1H-1,2,4-triazol-1-yl)pyrazin-2-yl)-N-(6-hydroxyspiro[3.3]heptan-2-yl)-4-methylbenzenesulfonamide or (R)-3-(5-Amino-6-(1H-1,2,4-triazol-1-yl)pyrazin-2-yl)-N-(6-hydroxyspiro[3.3]heptan-2-yl)-4-methylbenzenesulfonamide] | 1920 nM |  | 110 nM | 25 nM | 4600 nM | > 10000 nM | 750 nM | 58 µL/min/mg | 2000 nM |  | 2640 nM | 1410 nM |  | 185 nM | 0.29 µM |
| Cc1ccc(S(=O)(=O)NC2CC3(CC(O)C3)C2)cc1-c1cnc(N)c(-n2cncn2)n1 (single isomer, unassigned) [Example 70b, (S)-3-(5-Amino-6-(1H-1,2,4-triazol-1-yl)pyrazin-2-yl)-N-(6-hydroxyspiro[3.3]heptan-2-yl)-4-methylbenzenesulfonamide or (R)-3-(5-Amino-6-(1H-1,2,4-triazol-1-yl)pyrazin-2-yl)-N-(6-hydroxyspiro[3.3]heptan-2-yl)-4-methylbenzenesulfonamide] | 4060 nM |  | 840 nM | 4 nM | > 10000 nM | > 10000 nM | 2500 nM | 57 µL/min/mg | 5900 nM |  | > 10000 nM | 3980 nM |  | 687 nM | 1.1 µM |
| CC(C)(O)CNS(=O)(=O)c1ccc(Cl)c(-c2cnc(N)c(-n3cncn3)n2)c1 [Example 37, 3-(5-Amino-6-(1H-1,2,4-triazol-1-yl)pyrazin-2-yl)-4-chloro-N-(2-hydroxy-2-methylpropyl)benzenesulfonamide] | 7910 nM | 0.73 µM | 1000 nM | 83 nM | 3500 nM | > 9100 nM | 3500 nM | 33 µL/min/mg | 5900 nM | 1550 nM | 1890 nM | 5920 nM |  |  |  |
| Cc1ccc(S(=O)(=O)NC[C@H]2CCOC2)cc1-c1cnc(N)c(-n2cncn2)n1 [Example 127.27] |  | 0.79 µM | 200 nM | 26 nM | 8700 nM | > 10000 nM | 1800 nM |  | 9600 nM | 1090 nM |  |  | 242 nM |  |  |
| Cc1ccc(S(=O)(=O)NCC(C)(C)O)cc1-c1cnc(N)c(-c2cnn(CC(F)(F)F)n2)n1 [Example 84, 3-(5-Amino-6-(2-(2,2,2-trifluoroethyl)-2H-1,2,3-triazol-4-yl)pyrazin-2-yl)-N-(2-hydroxy-2-methylpropyl)-4-methyl benzenesulfonamide] | 450 nM | 0.21 µM | 120 nM | 42 nM | 7050 nM | > 10000 nM | 2300 nM | 64 µL/min/mg | > 10000 nM | 1010 nM | > 3000 nM | 440 nM |  |  |  |
| Cc1ccc(S(=O)(=O)NC[C@@H]2CCNC2)cc1-c1cnc(N)c(-n2cncn2)n1 [Example 127.57, (R)-3-(5-amino-6-(1H-1,2,4-triazol-1-yl)pyrazin-2-yl)-4-methyl-N-(pyrrolidin-3-ylmethyl)benzenesulfonamide trifluoroacetic acid salt] | > 10000 nM | 0.76 µM | 1400 nM | 50 nM | 5900 nM | > 10000 nM | 730 nM | 21 µL/min/mg | 5000 nM | 13800 nM | > 10000 nM | > 10000 nM |  |  |  |
